Data: US10583171B2, “NMDAR antagonists for the treatment of diseases associated with angiogenesis” (INSERM (Institut National de la Sante et de la Recherche …, priority 2015, dated 2020)

How the values were obtained:
Type in all cases: cell-based, human
[1] = test system: hPMVEC; test: In vitro angiogenesis Matrigel assay with hPMVEC; details: 4 hours, 100 μM (+)-MK-801 maleate or 50 μM DAP-V (FIG. 1g, FIG. 2f)
Description: Matrigel assays were performed on μ-slide angiogenesis (IBIDI, Martinsried, Germany). 100 μL of phenol-red free matrigel matrix (BD, Franklin lakes, N.J., USA) were put in each wells and slides were incubated during 30 min at 37° C. Then, 50 μL of EGM2-MV medium with our without NMDAR antagonists (100 μM (+)-MK-801 maleate or 50 μM DAP-V, both from ABCAM BIOCHEMICALS, Cambridge, UK) were added on matrigel gels during 1 hour. 3500 hPMVEC were seeded in each well in presence or absence of NMDAR antagonists. After 4 hours, bright-field images of capillary-like structures were captured using Eclipse 80i microscope coupled to Nis Elements BR2.30 software. Images were then automatically analyzed with “Angiogenesis analyzer” plugin for ImageJ software resulting in total tube length and total number of nodes determination.

[2] = test system: hPMVEC; test: hPMVEC proliferation (BrdU incorporation) stimulated by VEGF-A or FBS; details: for hPMVEC proliferation stimulated by FBS 10%: antagonist 10 μM to 100 μM, no exogenous NMDAR agonists (FIG. 2e); for hPMVEC proliferation stimulated by VEGF-A: VEGF-A 10 ng·ml^−1, antagonist 10 μM to 100 μM, no exogenous NMDAR agonists (FIG. 1f)
Description: FIG. 1: Activation of endothelial cell NMDAR contributes to vascular remodeling in the development of pulmonary hypertension. • (a) The table summarizes quantitation of total membrane GluN1 i.e NMDAR available for activation, in endothelial cells and also specifically in synaptic-like contact (defined as a close contact […] between two endothelial cells without junctions). A concentration index of GluN1 in the synaptic-like contacts was determined calculating the ratio of the percent of membrane GluN1 in these synaptic-like contacts divided by the percent of synaptic contact length. • (b) Quantitative RT-PCR analysis of GRIN1 gene expression from total RNA of CD31+ cells and CD31− cells isolated from the lungs of wild-type mice (n=4) and knocked-out mice (n=4) for the NMDAR in ECs showing efficiency of Grin1 knockout in ECs. Grin1 gene expression is normalized to Actinb gene expression. Values are normalized to those of WT mice. • (c) Right Ventricular Systolic Pressure (RVSP) measurement in wild-type (n=11-12) and knocked-out mice for the NMDAR in ECs (n=17-18) after 3 weeks of normoxia or chronic hypoxia (FiO2: 10%). • (d) Ratio of right ventricular weight to left ventricular plus septum weight (Fulton index) measured in wild-type (n=12) or knocked-out mice for the NMDAR in ECs (n=19-20) after 3 weeks of normoxia or chronic hypoxia (FiO2: 10%). Same experiment as in c). • (e) Morphometric analysis of pulmonary vessels in wild-type or knocked-out mice for the NMDAR in ECs after 3 weeks of normoxia or chronic hypoxia (FiO2: 10%). Same experiment as in c) and d). […] 100 vessels were analyzed for each group (20 vessels per group and per mice). […] On the left automatic quantification of total tube length and total number of nodes using the “Angiogenesis analyzer” plugin from ImageJ software on a total of 7-8 images (1 image/replicate, each image covering nearly all the well area). Values are expressed as percent of control. […] Statistical significance was determined by Mann Whitney test (b), regular two-way ANOVA followed by Bonferonni's test (c-e), one-way ANOVA followed by Bonferonni's multiple comparison test (f, h) or Student's t test (g). *p<0.05, ***p<0.001 compared to WT/control (b-e, g, h) or ^§§§ p<0.001 compared to control, *p<0.05, ***p<0.001 compared to VEGF (f). […]
FIG. 2: Supplementary figures about activation of endothelial cell NMDAR contributes to vascular remodeling in the development of pulmonary hypertension. • (a) Quantitation of total GluN1-associated immunogold particles per 100 μm^2 of endothelial cells in arteries from a control patient, and in an intimal lesion and plexiform lesion from a PAH patient. • (b) Genotyping of Tek-creXGrin1 mice. […]

[3] = test system: hPMVEC; test: hPASMC/hPMVEC co-culture model of angiogenesis; details: hPMVECs and hPASMCs co-culture, 15 days, CD31 staining; 10 to 100 μM (FIG. 1h, FIG. 2g)
Description: For the hPASMC/hPMVEC co-culture model of angiogenesis, 20000 PASMC were seeded on glass coverslips in a 12-well plate (CORNING, Tewksbury, Mass., USA) and cultured until confluence in SmGm2 complete medium. […] Medium was changed every 2 to 3 days and after 15 days of co-culture, cells were fixed and CD31 was stained. After staining, 5×5 images of each coverslip were captured using mosaic mode of acquisition with a Zeiss Axio Observer Z1 microscope coupled to Axiovision 4.8 software (both from CARL ZEISS, Oberkochen, Germany). Images were analysed using ImageJ software in order to calculate the CD31 staining area to the total cell area ratio. This ratio was further named as the total tube length. Automatic quantitation was also achieved using AngioQuant software^70 to determine total tube length.

[4] = test system: hPASMCs; test: hPASMC proliferation induced by PDGF-BB; details: PDGF-BB stimulation, no NMDAR agonist added to the medium
Description: For hPASMC culture, 250 000 cells were seeded in T75 flasks (BD Falcon, CORNING, Tewksbury, Mass., USA) and grown in the SmGm2 complete medium containing SmBm basal medium and also basic fibroblast growth factor, epidermal growth factor, insulin and gentamycin/amphotericin 1× (all from LONZA, Basel, Switzerland).
As proliferation of hPASMCs is a crucial determinant of vascular remodeling associated to increased pulmonary vascular resistance and pressure, we analyzed the role of NMDAR activation in hPASMCs proliferation. […] Thus, we explored the potential of PDGF-BB to phosphorylate GluN1 in hPASMCs on Ser896, a site phosphorylated in pulmonary arteries of PAH patients.

| SMILES | number of nodes [1] | total tube length formation [1] | hPMVEC proliferation stimulated by FBS 10% [2] | hPMVEC proliferation stimulated by VEGF-A [2] | formation of the endothelial tube network [3] | hPASMCs proliferation induced by PDGF-BB [4] |
| --- | --- | --- | --- | --- | --- | --- |
| N[C@H](CCCP(=O)(O)O)C(=O)O [DAP-5, 2-amino-5-phosphonopentanoïc acid] | decrease | decrease | – | – | – | – |
| C[C@@]12N[C@@H](Cc3ccccc31)c1ccccc12 [MK-801, [5R,10S]-[+]-5-methyl-10,11-dihydro-5H-dibenzo[a,d]cyclohepten-5,10-imine] | decrease | decrease | dose-dependently inhibit | dose-dependently inhibit | dose-dependently inhibits | – |
| CC12CC3CC(C)(C1)CC(N)(C3)C2 [memantine, 3,5-dimethyladamantan-1-amine] | – | – | dose-dependently inhibit | dose-dependently inhibit | – | dose-dependent inhibition |
